Measured values: ChEMBL document CHEMBL4330088, “Targeting the immunity protein kinases for immuno-oncology” (Eur J Med Chem, 2019)
pIC50: −log10 of the molar value. Values belong to the molecule of their own block, whether it stands above or below them.

Experiments:
PI3K p110 beta/p85 alpha = PI3K p110 beta/p85 alpha (Homo sapiens, UniProt P42338); assay: Inhibition of human full length recombinant N-terminal His-tagged PI3Kbeta/p85alpha expressed in baculovirus infected Sf21 insect cells
[1] = biological target: Phosphatidylinositol 4,5-bisphosphate 3-kinase catalytic subunit gamma isoform (Homo sapiens, UniProt P48736); assay: Inhibition of PI3Kgamma (unknown origin)
Phosphatidylinositol 4,5-bisphosphate 3-kinase catalytic subunit gamma isoform, sequence (P48736 whole entry, canonical isoform): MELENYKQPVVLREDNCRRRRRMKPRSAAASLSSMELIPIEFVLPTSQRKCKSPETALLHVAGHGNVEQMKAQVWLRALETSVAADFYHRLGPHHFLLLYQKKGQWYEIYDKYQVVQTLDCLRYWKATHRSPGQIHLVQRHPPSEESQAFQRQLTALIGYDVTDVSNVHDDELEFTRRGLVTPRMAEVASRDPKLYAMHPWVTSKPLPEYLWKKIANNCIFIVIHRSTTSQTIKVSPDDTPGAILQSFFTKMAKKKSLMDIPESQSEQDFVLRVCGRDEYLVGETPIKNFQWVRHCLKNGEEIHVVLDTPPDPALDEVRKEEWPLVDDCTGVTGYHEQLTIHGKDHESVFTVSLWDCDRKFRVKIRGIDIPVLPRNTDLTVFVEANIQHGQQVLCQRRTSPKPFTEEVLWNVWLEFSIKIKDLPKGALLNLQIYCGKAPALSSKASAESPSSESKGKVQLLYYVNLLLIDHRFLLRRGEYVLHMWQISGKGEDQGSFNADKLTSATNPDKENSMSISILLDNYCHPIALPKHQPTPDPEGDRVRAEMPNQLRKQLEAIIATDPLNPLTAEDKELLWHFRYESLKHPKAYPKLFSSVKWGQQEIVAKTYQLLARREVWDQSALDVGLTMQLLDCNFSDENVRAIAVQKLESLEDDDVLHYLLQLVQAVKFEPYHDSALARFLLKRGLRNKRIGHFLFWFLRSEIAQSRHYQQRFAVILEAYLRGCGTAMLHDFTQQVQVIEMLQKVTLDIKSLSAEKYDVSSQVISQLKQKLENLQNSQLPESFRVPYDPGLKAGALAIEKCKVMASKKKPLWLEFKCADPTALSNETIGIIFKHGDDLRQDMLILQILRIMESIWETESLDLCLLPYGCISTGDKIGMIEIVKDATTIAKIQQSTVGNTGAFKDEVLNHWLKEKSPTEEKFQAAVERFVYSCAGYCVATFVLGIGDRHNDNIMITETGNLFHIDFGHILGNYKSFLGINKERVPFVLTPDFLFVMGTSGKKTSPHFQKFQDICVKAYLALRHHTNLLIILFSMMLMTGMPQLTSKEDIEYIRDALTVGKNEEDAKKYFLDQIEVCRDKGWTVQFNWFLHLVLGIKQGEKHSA

[2] = biological target: PI3-kinase p110-alpha/p85-alpha (Homo sapiens, UniProt P42336); assay: Inhibition of human N-terminal His-tagged PI3Kalpha/p85alpha expressed in Spodoptera frugiperda using phosphatidylinositol as substrate
PI3-kinase p110-alpha/p85-alpha, sequence (P27986 whole entry): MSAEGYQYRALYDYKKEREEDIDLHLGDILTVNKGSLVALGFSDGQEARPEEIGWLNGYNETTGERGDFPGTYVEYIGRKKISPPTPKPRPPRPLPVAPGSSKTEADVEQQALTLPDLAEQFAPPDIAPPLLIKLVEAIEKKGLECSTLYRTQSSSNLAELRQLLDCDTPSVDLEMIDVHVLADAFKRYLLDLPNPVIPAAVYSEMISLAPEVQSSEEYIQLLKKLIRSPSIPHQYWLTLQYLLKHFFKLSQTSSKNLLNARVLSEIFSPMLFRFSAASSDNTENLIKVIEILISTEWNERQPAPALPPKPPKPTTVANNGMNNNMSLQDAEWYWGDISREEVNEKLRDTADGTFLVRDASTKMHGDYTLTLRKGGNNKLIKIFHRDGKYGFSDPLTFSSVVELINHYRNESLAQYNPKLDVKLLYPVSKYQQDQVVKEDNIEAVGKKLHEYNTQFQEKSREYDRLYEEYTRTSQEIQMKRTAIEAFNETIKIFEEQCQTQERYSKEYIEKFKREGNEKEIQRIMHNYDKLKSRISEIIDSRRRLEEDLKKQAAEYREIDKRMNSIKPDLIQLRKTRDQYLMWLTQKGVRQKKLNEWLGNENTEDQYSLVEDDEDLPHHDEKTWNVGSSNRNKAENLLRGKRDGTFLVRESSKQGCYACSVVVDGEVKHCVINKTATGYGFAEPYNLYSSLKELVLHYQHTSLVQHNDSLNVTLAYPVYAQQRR
PI3-kinase p110-alpha/p85-alpha, sequence (P42336 whole entry): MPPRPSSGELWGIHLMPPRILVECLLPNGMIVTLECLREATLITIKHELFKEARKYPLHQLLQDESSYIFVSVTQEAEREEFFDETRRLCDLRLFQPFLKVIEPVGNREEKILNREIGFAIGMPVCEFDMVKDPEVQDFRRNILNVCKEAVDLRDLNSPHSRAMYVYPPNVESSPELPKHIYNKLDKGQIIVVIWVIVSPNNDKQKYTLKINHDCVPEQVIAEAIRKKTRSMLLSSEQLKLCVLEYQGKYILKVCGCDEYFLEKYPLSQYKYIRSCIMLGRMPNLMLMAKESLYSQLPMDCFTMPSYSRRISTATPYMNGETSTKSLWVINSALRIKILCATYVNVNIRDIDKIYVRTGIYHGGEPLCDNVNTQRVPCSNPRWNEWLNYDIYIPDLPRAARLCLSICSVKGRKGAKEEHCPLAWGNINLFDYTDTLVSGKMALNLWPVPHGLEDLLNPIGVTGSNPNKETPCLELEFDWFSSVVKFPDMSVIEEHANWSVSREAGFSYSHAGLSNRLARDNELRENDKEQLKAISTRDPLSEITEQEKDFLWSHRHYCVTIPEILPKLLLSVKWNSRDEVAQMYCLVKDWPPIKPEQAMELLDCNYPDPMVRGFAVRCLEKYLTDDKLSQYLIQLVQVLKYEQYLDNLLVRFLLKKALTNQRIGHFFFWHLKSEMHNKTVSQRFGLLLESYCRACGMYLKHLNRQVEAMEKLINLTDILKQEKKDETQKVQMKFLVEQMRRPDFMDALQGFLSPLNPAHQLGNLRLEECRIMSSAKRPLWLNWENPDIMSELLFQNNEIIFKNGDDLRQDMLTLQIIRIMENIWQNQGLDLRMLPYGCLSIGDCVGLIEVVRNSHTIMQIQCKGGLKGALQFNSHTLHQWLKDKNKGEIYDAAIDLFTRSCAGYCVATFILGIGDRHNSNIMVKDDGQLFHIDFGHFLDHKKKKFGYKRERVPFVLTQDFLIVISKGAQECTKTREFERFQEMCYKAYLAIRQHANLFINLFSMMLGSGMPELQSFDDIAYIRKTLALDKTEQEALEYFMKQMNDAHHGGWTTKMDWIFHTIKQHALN

Homo sapiens [3] = organism: Homo sapiens; assay: Selectivity ratio of IC50 for PI3Kdelta (unknown origin) to IC50 for human N-terminal His-tagged PI3Kalpha/p85alpha
Homo sapiens [4] = organism: Homo sapiens; assay: Selectivity ratio of IC50 for PI3Kdelta (unknown origin) to IC50 for human full length recombinant N-terminal His-tagged PI3Kbeta/p85alpha
Homo sapiens [5] = organism: Homo sapiens; assay: Selectivity ratio of IC50 for PI3Kdelta (unknown origin) to IC50 for PI3Kgamma (unknown origin)
[6] = biological target: MAP kinase-interacting serine/threonine-protein kinase 1/2 (Homo sapiens) (UniProt Q9HBH9+Q9BUB5); assay: Inhibition of MNK in human PBMC assessed as reduction in eIF4E phosphorylation at 200 mg after 24 hrs relative to control
[7] = Half life of compound in human PBMC; format: ADME, cell-based
[8] = biological target: Non-receptor tyrosine-protein kinase TYK2 (Homo sapiens, UniProt P29597); assay: Inhibition of TYK2 in human Jurkat cells assessed as reduction in IFN-alpha stimulated TYK2 phosphorylation by […] Western blot analysis; format: cell-based
[9] = biological target: Tyrosine-protein kinase JAK1 (Homo sapiens, UniProt P23458); assay: Inhibition of JAK1 in human Jurkat cells assessed as reduction in IFN-alpha stimulated JAK1 phosphorylation by […] Western blot analysis; format: cell-based
[10] = biological target: T1, Tyrosine-protein kinase JAK3 (Homo sapiens, UniProt P52333); assay: Inhibition of JAK3 in human Jurkat cells assessed as reduction in IFN-alpha stimulated JAK3 phosphorylation by […] Western blot analysis; format: cell-based
T1 sequence (P52333 whole entry): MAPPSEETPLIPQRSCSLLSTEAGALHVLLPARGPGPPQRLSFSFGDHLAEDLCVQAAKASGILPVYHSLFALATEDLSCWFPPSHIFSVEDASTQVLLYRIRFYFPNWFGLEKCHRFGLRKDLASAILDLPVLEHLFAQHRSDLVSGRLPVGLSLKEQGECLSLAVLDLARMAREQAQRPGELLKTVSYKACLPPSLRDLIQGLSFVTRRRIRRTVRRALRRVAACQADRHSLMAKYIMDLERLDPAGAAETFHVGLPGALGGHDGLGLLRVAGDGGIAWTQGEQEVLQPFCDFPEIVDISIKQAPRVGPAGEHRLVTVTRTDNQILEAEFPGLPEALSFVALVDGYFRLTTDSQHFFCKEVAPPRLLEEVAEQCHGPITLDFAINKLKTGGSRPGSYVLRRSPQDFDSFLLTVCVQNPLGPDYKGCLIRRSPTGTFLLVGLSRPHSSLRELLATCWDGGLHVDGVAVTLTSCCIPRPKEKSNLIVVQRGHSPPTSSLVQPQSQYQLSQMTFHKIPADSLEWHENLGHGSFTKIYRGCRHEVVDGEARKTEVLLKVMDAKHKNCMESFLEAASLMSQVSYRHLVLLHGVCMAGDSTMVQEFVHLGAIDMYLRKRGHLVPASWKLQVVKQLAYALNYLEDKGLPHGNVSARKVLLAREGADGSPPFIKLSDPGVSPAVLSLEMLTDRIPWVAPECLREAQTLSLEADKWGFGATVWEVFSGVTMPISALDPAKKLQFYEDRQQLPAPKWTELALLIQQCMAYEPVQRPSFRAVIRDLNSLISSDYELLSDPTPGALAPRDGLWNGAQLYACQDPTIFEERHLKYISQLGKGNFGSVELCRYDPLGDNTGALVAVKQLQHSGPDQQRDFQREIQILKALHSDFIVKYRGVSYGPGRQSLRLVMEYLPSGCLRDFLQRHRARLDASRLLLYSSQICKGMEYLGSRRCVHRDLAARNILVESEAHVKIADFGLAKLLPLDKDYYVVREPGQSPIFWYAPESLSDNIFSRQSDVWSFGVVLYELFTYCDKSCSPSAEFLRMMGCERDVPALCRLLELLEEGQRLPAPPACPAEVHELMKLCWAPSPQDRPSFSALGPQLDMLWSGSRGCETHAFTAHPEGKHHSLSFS

[11] = biological target: T2, Interleukin-1 receptor-associated kinase 4 (Homo sapiens, UniProt Q9NWZ3); assay: Inhibition of IRAK4 (unknown origin)
T2 sequence (Q9NWZ3 whole entry): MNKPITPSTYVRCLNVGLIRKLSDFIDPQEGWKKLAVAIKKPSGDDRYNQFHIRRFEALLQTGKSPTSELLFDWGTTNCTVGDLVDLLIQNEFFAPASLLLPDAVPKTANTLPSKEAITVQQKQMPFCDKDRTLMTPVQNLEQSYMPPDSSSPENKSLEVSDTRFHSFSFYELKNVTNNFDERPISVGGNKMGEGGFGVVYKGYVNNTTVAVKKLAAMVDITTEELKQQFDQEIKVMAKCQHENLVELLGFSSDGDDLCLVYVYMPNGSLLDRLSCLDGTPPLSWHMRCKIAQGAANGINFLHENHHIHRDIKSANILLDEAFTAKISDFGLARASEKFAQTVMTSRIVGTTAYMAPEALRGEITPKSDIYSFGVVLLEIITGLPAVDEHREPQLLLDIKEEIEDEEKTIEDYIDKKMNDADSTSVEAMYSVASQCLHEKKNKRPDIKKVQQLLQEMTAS

PI3K p110 beta/p85 alpha, sequence (P27986 whole entry, canonical isoform): as the sequence (P27986 whole entry) above
PI3K p110 beta/p85 alpha, sequence (P42338 whole entry, canonical isoform): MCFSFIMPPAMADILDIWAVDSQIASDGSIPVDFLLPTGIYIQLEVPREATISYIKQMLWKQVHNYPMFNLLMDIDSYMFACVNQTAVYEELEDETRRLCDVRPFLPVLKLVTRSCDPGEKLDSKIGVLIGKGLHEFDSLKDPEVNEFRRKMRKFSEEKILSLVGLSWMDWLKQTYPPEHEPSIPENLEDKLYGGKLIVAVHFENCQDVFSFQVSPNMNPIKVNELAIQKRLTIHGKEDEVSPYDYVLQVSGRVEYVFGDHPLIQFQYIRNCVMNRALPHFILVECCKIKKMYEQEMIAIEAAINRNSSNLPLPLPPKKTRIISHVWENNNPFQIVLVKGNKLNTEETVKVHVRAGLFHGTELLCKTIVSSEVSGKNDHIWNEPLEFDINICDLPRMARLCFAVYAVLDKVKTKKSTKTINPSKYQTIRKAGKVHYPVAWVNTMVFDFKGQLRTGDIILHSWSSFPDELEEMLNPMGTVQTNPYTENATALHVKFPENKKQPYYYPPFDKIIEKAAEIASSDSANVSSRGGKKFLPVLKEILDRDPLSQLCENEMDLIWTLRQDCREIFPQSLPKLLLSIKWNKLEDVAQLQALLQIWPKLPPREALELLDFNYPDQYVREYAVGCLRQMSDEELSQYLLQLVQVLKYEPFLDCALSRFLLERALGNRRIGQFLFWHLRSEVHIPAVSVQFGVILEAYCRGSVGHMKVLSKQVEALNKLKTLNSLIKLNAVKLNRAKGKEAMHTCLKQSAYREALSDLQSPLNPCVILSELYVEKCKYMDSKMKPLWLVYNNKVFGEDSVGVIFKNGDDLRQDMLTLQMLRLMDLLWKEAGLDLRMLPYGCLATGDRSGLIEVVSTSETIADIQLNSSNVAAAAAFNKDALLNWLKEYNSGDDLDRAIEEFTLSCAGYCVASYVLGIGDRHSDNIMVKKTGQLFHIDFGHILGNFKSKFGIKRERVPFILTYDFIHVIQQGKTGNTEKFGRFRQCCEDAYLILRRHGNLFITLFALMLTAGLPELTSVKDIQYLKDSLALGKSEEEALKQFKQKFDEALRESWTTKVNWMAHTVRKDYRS

SMILES: Fc1ccc2[nH]ccc2c1-c1nc(N2CCOCC2)c2sc(CN3CCN(CC4CC4)CC3)cc2n1
pIC50 [2]: 5.64
pIC50 (PI3K p110 beta/p85 alpha): 5.97
pIC50 [1]: < 5.00
Ratio IC50 (Homo sapiens [3]): > 72
Ratio IC50 (Homo sapiens [4]): > 72
Ratio IC50 (Homo sapiens [5]): > 72

SMILES: N#Cc1ccc(-c2cnc3ccc(-c4ccc(C(=O)N5CCOCC5)cc4)cn23)cc1 [TINODASERTIB]
half-life [7]: 25 h

SMILES: CC(C)Oc1ccc(-c2nn([C@@H](C)c3oc4ccc(F)cc4c(=O)c3-c3cccc(F)c3)c3ncnc(N)c23)cc1F [UMBRALISIB]
pIC50 [2]: < 5.00
pIC50 (PI3K p110 beta/p85 alpha): < 5.00
pIC50 [1]: 5.85

SMILES: NC(=O)C[C@H]1CCc2sc3ncnc(O[C@H]4CC[C@H](N5CCOCC5)CC4)c3c21
pIC50 [11]: 8.12

Second part, the molecule after the results:

pIC50 (PI3K p110 beta/p85 alpha): 5.43
pIC50 [1]: 5.64
SMILES: Cc1csc2nc([C@H](C)Nc3ncnc4[nH]cnc34)c(-c3cccc(F)c3)c(=O)n12 [DEZAPELISIB]

inhibition [6]: 85%
half-life [7]: 11 h
SMILES: Cc1cc(Nc2cc(N)ncn2)c(=O)n2c1C(=O)NC21CCCCC1.Cl [TOMIVOSERTIB HYDROCHLORIDE]

pIC50 [8]: 9.22
pIC50 [9]: 7.64
pIC50 [10]: 7.39
SMILES: NC(=O)c1nc(-c2c(F)cccc2Cl)oc1Nc1ccc(C(=O)N2CCOCC2)cc1

pIC50 [11]: 9.70
SMILES: CC[C@@H]1[C@H](F)C(=O)N[C@@H]1COc1cccc2cc(C(N)=O)c(OC)cc12
